For 12 compounds, DC50 and EC50 results are on record in patent US20250320206A1, “STAT6 DEGRADERS” (Gilead Sciences, Inc., priority 2024, published 2025).

The term DC50 denotes the concentration at which degradation of the target reaches its halfway point. As usually defined, the EC50 is the concentration giving half of the maximal effect.

The target in one assay is T1, STAT6 (Homo sapiens, UniProt P42226).
T1 construct: These cells express endogenous STAT6; host or cells: HeLa LgBiT clone 4.14
T1 sequence (P42226 1-847): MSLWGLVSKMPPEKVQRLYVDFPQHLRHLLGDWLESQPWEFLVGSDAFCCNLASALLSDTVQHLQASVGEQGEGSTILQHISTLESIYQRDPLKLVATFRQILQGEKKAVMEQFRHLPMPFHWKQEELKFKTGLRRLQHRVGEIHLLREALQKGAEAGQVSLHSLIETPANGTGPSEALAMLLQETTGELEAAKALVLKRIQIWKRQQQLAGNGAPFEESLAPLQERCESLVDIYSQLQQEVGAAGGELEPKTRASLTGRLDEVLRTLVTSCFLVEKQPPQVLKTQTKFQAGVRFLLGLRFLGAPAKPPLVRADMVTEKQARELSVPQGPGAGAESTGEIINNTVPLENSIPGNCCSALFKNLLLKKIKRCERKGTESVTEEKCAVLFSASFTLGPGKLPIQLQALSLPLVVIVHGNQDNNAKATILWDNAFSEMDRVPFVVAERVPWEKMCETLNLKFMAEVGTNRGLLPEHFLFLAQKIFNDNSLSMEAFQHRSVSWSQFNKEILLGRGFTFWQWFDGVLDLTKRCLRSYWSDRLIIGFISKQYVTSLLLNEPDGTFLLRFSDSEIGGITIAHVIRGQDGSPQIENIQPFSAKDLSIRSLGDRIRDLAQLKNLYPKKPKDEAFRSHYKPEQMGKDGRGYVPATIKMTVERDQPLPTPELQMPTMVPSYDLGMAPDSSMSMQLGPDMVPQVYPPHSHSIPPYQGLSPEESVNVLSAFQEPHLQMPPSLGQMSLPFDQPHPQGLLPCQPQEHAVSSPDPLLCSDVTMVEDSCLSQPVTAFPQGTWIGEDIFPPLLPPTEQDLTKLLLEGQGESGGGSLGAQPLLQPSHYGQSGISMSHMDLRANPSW
Put plainly: Stat6 Degrader Assay (HiBiT based, HeLa LgBiT clone 4.14). The format is cell-based. The note with it: HeLa LgBiT clone 4.14 HiBiT-STAT6, 4-24 h incubation; values given for compounds with >80% Emax; geometric mean; read-out: STAT6 degradation DC50. An outline of the steps: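 HeLa LgBiT clone 4.14 cells with CRISPR HiBiT-tagged endogenous STAT6, 5000 cells/well, compound dosed then incubated 4-24 h at 37° C, 5% CO2. Nano-Glo substrate added, 0.5 h, luminescence read as non-degraded STAT6. Terfenadine 50 μM (cell kill) defines 100% degradation.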
In general terms: The HiBiT peptide binds its large partner to form an active luciferase.

The test system of assay [1] is Eotaxin-3 release in human whole blood stimulated with IL-4. Description: Human Whole Blood Eotaxin-3 Assay (IL-4 stimulated eotaxin-3 release). In kind it is cell-based. The note with it: IL-4 stimulation, 48 h, values given for compounds with >80% Emax, geometric mean. An outline of the steps: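 Lithium-heparin human whole blood preincubated 2 h at 37° C with 4-fold serially diluted compounds (0.5% DMSO), then stimulated with recombinant human IL-4 ([…]) for 48 h. Eotaxin-3 (CCL26) in supernatant quantified by MSD immunoassay.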

As for `CNc1ccn(-c2ccnc3c2cc([C@H](C)N2CC=C(c4c(C)cc(C(=O)N5CCC(CN6CCN(c7cc8c(cc7F)n([C@H]7CCC(=O)NC7=O)c(=O)n8C)CC6)CC5)cc4F)CC2)n3C)c(=O)c1` (single isomer, unassigned) [Example 3u307], on STAT6, the DC50 stood at 1.4 nM. The compound further registered an EC50 in assay [1] of 1.1 nM.

Turning to `CNc1ccn(-c2ccnc3c2cc([C@H](C)N2CC=C(c4c(C)cc(C(=O)N5CCC(CN6CCN(c7cc8c(cc7F)n([C@@H]7CCC(=O)NC7=O)c(=O)n8C)CC6)CC5)cc4F)CC2)n3C)c(=O)c1` (single isomer, unassigned) [Example 3u308], the DC50 at STAT6 was 0.7 nM. Further, it took 1.3 nM to reach a half-maximal effect in assay [1] (EC50).

As for `CNc1ccn(-c2ccnc3c2cc([C@H](C)N2CCC(c4ccc(C(=O)N5CCC(CN6CCN(Cc7ccc8c(c7)n(C)c(=O)n8C7CCC(=O)NC7=O)C[C@@H]6C)CC5)cc4)CC2)n3C)c(=O)c1` (stereo partly drawn) [Example 3e39, 3-(3-methyl-5-(((S)-3-methyl-4-((1-(4-(1-((S)-1-(1-methyl-4-(4-(methylamino)-2-oxopyridin-1 (2H)-yl)-1H-pyrrolo[2,3-b]pyridin-2-yl)ethyl)piperidin-4-yl)benzoyl)piperidin-4-yl)methyl)piperazin-1-yl)methyl)-2-oxo-2,3-dihydro-1H-benzo[d]imidazol-1-yl)piperidine-2,6-dione], the half-maximal degradation concentration (DC50) at STAT6 is 0.5 nM. The compound further registered an EC50 in assay [1] of 0.5 nM.

Turning to `C[C@H]1CN(Cc2ccc3c(c2)n(C)c(=O)n3C2CCC(=O)NC2=O)CCN1CC1CCN(C(=O)c2ccc(C3CCN([C@@H](C)c4cc5c(-n6ccc7c(c6=O)CCN7)ccnc5n4C)CC3)cc2)CC1` (stereo partly drawn) [Example 3e44, 3-(3-methyl-5-(((S)-3-methyl-4-((1-(4-(1-((S)-1-(1-methyl-4-(4-oxo-1,2,3,4-tetrahydro-5H-pyrrolo[3,2-c]pyridin-5-yl)-1H-pyrrolo[2,3-b]pyridin-2-yl)ethyl)piperidin-4-yl)benzoyl)piperidin-4-yl)methyl)piperazin-1-yl)methyl)-2-oxo-2,3-dihydro-1H-benzo[d]imidazol-1-yl)piperidine-2,6-dione], at STAT6, the DC50 turned out to be 0.7 nM. Also, the EC50 in assay [1] came out at 0.3 nM.

With `CNc1nc(=O)n(-c2ccnc3c2cc(CN2CCC(c4c(F)cc(C(=O)N5CCC(CN6CCN(Cc7ccc8c(c7)C7(CC7)C(=O)N8C7CCC(=O)NC7=O)C[C@@H]6C)CC5)cc4F)CC2)n3C)cc1F` (stereo partly drawn) [Example 3h10, 3-(5′-(((S)-4-((1-(3,5-difluoro-4-(1-((4-(5-fluoro-4-(methylamino)-2-oxopyrimidin-1 (2H)-yl)-1-methyl-1H-pyrrolo[2,3-b]pyridin-2-yl)methyl)piperidin-4-yl)benzoyl)piperidin-4-yl)methyl)-3-methylpiperazin-1-yl)methyl)-2′-oxospiro[cyclopropane-1,3′-indolin]-1′-yl)piperidine-2,6-dione], at STAT6, the DC50 was 3.2 nM. Further, a half-maximal effect in assay [1] (EC50) was put at 4.8 nM.

In the case of `CNc1ccn(-c2ccnc3c2cc(CN2CCC(c4c(F)cc(C(=O)N5CCC(CN6CCN(Cc7ccc8c(c7)C7(CC7)C(=O)N8C7CCC(=O)NC7=O)C[C@@H]6C)CC5)cc4F)CC2)n3C)c(=O)n1` (stereo partly drawn) [Example 3h12, 3-(5′-(((S)-4-((1-(3,5-difluoro-4-(1-((1-methyl-4-(4-(methylamino)-2-oxopyrimidin-1 (2H)-yl)-1H-pyrrolo[2,3-b]pyridin-2-yl)methyl)piperidin-4-yl)benzoyl)piperidin-4-yl)methyl)-3-methylpiperazin-1-yl)methyl)-2′-oxospiro[cyclopropane-1,3′-indolin]-1′-yl)piperidine-2,6-dione], the DC50 at STAT6 turned out to be 3.2 nM. In addition, the EC50 in assay [1] was determined as 1.3 nM.

Regarding `CNc1ccn(-c2ccnc3c2cc(CN2CC=C(c4c(F)cc(C(=O)N5CCC(CN6CCN(Cc7ccc8c(c7)n(C)c(=O)n8C7CCC(=O)NC7=O)C[C@@H]6C)CC5)cc4F)CC2)n3C)c(=O)c1` (stereo partly drawn) [Example 3u1, 3-(5-(((S)-4-((1-(3,5-difluoro-4-(1-((1-methyl-4-(4-(methylamino)-2-oxopyridin-1 (2H)-yl)-1H-pyrrolo[2,3-b]pyridin-2-yl)methyl)-1,2,3,6-tetrahydropyridin-4-yl)benzoyl)piperidin-4-yl)methyl)-3-methylpiperazin-1-yl)methyl)-3-methyl-2-oxo-2,3-dihydro-1H-benzo[d]imidazol-1-yl)piperidine-2,6-dione], the DC50 on STAT6 came to 0.9 nM. Further, the EC50 in assay [1] came to 1 nM.

Consider `CNc1cc(=O)n(-c2ccnc3c2cc([C@H](C)N2CC=C(c4c(F)cc(C(=O)N5CCC(CN6CCN(Cc7ccc8c(c7)C(C)(C)C(=O)N8C7CCC(=O)NC7=O)C[C@@H]6C)CC5)cc4F)CC2)n3C)cc1F` (stereo partly drawn) [Example 3u9, 3-(5-(((S)-4-((1-(3,5-difluoro-4-(1-((S)-1-(4-(5-fluoro-4-(methylamino)-2-oxopyridin-1 (2H)-yl)-1-methyl-1H-pyrrolo[2,3-b]pyridin-2-yl)ethyl)-1,2,3,6-tetrahydropyridin-4-yl)benzoyl)-piperidin-4-yl)methyl)-3-methylpiperazin-1-yl)methyl)-3,3-dimethyl-2-oxoindolin-1-yl)piperidine-2,6-dione], for which the DC50 on STAT6 is 3.8 nM. In addition, the EC50 in assay [1] is 4.9 nM.

Consider `CNc1cc(=O)n(-c2ccnc3c2cc([C@H](C)N2CC=C(c4c(C)cc(C(=O)N5CCC(CN6CCN(Cc7ccc8c(c7)n(C)c(=O)n8C7CCC(=O)NC7=O)CC6)CC5)cc4F)CC2)n3C)cc1F` (stereo partly drawn) [Example 3u13, 3-(5-((4-((1-(3-fluoro-4-(1-((S)-1-(4-(5-fluoro-4-(methylamino)-2-oxopyridin-1 (2H)-yl)-1-methyl-1H-pyrrolo[2,3-b]pyridin-2-yl)ethyl)-1,2,3,6-tetrahydropyridin-4-yl)-5-methylbenzoyl)-piperidin-4-yl)methyl)piperazin-1-yl)methyl)-3-methyl-2-oxo-2,3-dihydro-1H-benzo[d]imidazol-1-yl)piperidine-2,6-dione], for which, on STAT6, the DC50 worked out at 0.7 nM. For the same compound, a half-maximal response in assay [1] (EC50) required 1 nM.

Regarding `CNc1ccn(-c2ccnc3c2cc(CN2CCC(c4c(F)cc(C(=O)N5CCC(CN6CCN(Cc7ccc8c(c7)C(C)(C)C(=O)N8C7CCC(=O)NC7=O)CC6)CC5)cc4F)CC2)n3C)c(=O)c1` (stereo not drawn) [Example 3u16, 3-(5-((4-((1-(3,5-difluoro-4-(1-((1-methyl-4-(4-(methylamino)-2-oxopyridin-1 (2H)-yl)-1H-pyrrolo[2,3-b]pyridin-2-yl)methyl)piperidin-4-yl)benzoyl)piperidin-4-yl)methyl)piperazin-1-yl)-methyl)-3,3-dimethyl-2-oxoindolin-1-yl)piperidine-2,6-dione], the DC50 on STAT6 was 11.2 nM. In assay [1], this compound displayed an EC50 of 12.1 nM.

Take `CNc1ccn(-c2ccnc3c2cc(CN2CCC(c4c(F)cc(C(=O)N5CCC(CN6CCN(Cc7ccc8c(c7)n(C)c(=O)n8C7CCC(=O)NC7=O)C[C@@H]6C)CC5)cc4F)CC2)n3C)c(=O)c1` (stereo partly drawn) [Example 3u19, 3-(5-(((S)-4-((1-(3,5-difluoro-4-(1-((1-methyl-4-(4-(methylamino)-2-oxopyridin-1 (2H)-yl)-1H-pyrrolo[2,3-b]pyridin-2-yl)methyl)piperidin-4-yl)benzoyl)piperidin-4-yl)methyl)-3-methyl-piperazin-1-yl)methyl)-3-methyl-2-oxo-2,3-dihydro-1H-benzo[d]imidazol-1-yl)piperidine-2,6-dione]: the DC50 at STAT6 is 0.7 nM. In assay [1], this compound returned an EC50 of 0.3 nM.

Take `CNc1cc(=O)n(-c2ccnc3c2cc([C@H](C)N2CC=C(c4c(C)cc(C(=O)N5CC=C(CC6CCN(c7ccc8c(c7)C7(CC7)C(=O)N8C7CCC(=O)NC7=O)CC6)CC5)cc4F)CC2)n3C)cc1F` (stereo partly drawn) [Example 3u20, 3-(5′-(4-((1-(3-fluoro-4-(1-((S)-1-(4-(5-fluoro-4-(methylamino)-2-oxopyridin-1 (2H)-yl)-1-methyl-1H-pyrrolo[2,3-b]pyridin-2-yl)ethyl)-1,2,3,6-tetrahydropyridin-4-yl)-5-methyl-benzoyl)-1,2,3,6-tetrahydropyridin-4-yl)methyl)piperidin-1-yl)-2′-oxospiro[cyclopropane-1,3′-indolin]-1′-yl)piperidine-2,6-dione]: at STAT6, the half-maximal degradation concentration (DC50) was 4.7 nM. Moreover, the 50% effective concentration (EC50) in assay [1] turned out to be 11.7 nM.
